These results are taken from patent US6620428B1, “Transdermally administered acetylcysteine as mucolytic agent” (Pharmacia AB, priority 1996, dated 2003).

For data set [1] the following is noted: oral administration, cited from earlier work.
Data set [2] is classed as in vitro ADME. To be noted: pig. The text has this: Quantitative determination of N-Acetyl-L-cysteine in the receptor solution samples from the skin permeation studies in Example 2 and from the membrane permeation studies in Example 3, and quantitative determination of N-Acetyl-L-cysteine in the samples from the stability studies in Example 6, was done by the HPLC method described under Apparatus.
In vitro permeation of N-Acetyl-L-cysteine from the solutions 1, 2, 3 and 4 through dermatomed pig skin was investigated in Franz diffusion Cells.
Skin pieces with a thickness of approximately 765 μm were dermatomed from full thickness pig skin and mounted in glass diffusion cells with an available diffusion area of 1.8 cm^2. Pig skin is a fully accepted model for human skin. The solutions 1, 2, 3 and 4 were applied separately on the skin surfaces and the dermal sides were all exposed to 12.1 ml receptor solution consisting of 0.0001M hydrochloric acid equilibrated to 37±1° C.
Permeation of N-Acetyl-L-cysteine was followed by removing samples periodically and measuring the concentration by the HPLC method according to Example 1. An increase in the permeated amount of N-Acetyl-L-cysteine is seen in the following order: Propylene glycol, water, ethanol and propylene glycol containing 5% azone added used as solvents. […]

Read-outs that look alike come from different tables or passages of the source.

Take `CC(=O)N[C@@H](CS)C(=O)O` [N-Acetyl-L-cysteine]: the “bioavailability when administered perorally” value is reported as 4% in data set [1] and 4-10% in data set [1] (listed as N-Acetyl-cysteine). For the same molecule, in data set [2], the “estimated fluxes of N-Acetyl-L-cysteine through skin” value is 4-48 μg/cm^2/h. In addition, the “amount permeated through skin after 20 hours” value in data set [2] (20 h) is “about 3000 μg/cm^2”.
